Results as given in ChEMBL document CHEMBL1139809, “Antinociceptive activity of furan-containing congeners of improgan and ranitidine” (2007).

test system: Rattus norvegicus; assay: Antinociceptive activity in icv dosed Sprague-Dawley rat assessed as latency to hind lift after 10 mins by hot plate test; type: functional

**Q.** With `CN/C(=N/C#N)NCCCCCCc1ccc(CN(C)C)o1` as the molecule, how does the ED50 read?
**A.** 120 nmol

**Q.** How did the ED50 turn out when `CN(C)Cc1ccc(CCCCNC(=O)c2ccccc2)o1` was run?
**A.** 203 nmol

**Q.** Which ED50 does the source give for `CC(=O)NCCCCc1ccc(CN(C)C)o1` here?
**A.** 126 nmol

**Q.** For `CN/C(=C/[N+](=O)[O-])NCCCCCCc1ccc(CN(C)C)o1`, which ED50 is on record?
**A.** 25 nmol

**Q.** `CN(C)Cc1ccc(CCCCCCNC(=O)Nc2ccccc2)o1` was tested. Which ED50 did it give?
**A.** 284 nmol

**Q.** With `CN(C)Cc1ccc(CCCCc2ccccc2)o1` as the molecule, how does the ED50 read?
**A.** 143 nmol

**Q.** For `CN/C(=N/C#N)NCCCCc1ccc(CN(C)C)o1`, which ED50 is on record?
**A.** 159 nmol

**Q.** Which ED50 does the source give for `CN(C)Cc1ccc(CCCCN)o1` here?
**A.** 689 nmol

**Q.** How did the ED50 turn out when `CN(C)Cc1ccc(CCCCNc2ccccc2)o1` was run?
**A.** 131 nmol

**Q.** Which ED50 does the source give for `CN/C(=C/[N+](=O)[O-])NCCCCc1ccc(CN(C)C)o1` here?
**A.** 111 nmol

**Q.** With `CN(C)Cc1ccc(CCCCCCNC(=O)Nc2ccc(I)cc2)o1` as the molecule, how does the ED50 read?
**A.** >149 nmol

**Q.** With `CN(C)Cc1ccc(CCCCNC(=O)Nc2ccc(I)cc2)o1` as the molecule, how does the ED50 read?
**A.** >226 nmol
